Data: paper PMC5218480 (PLoS ONE, 2017)

Test system: MV-4-11 cells
Assay: Gene expression microarray analysis (Affymetrix PrimeView) and GSEA
Format: cell-based, human
Design: RFU PODN (11730768_x_at) / Fold change /veh PODN (11730768_x_at) / RFU LINC00158 (11744669_a_at) / Fold change /veh LINC00158 (11744669_a_at) / RFU DUSP10 (11751237_a_at) / Fold change /veh DUSP10 (11751237_a_at) / RFU ID3 (11757404_x_at) / Fold change /veh ID3 (11757404_x_at) / RFU PLEKHG5 (11737974_s_at) / Fold change /veh PLEKHG5 (11737974_s_at) / RFU LRRC4B (11730491_at) / Fold change /veh LRRC4B (11730491_at) / RFU GIMAP4 (11747438_a_at) / Fold change /veh GIMAP4 (11747438_a_at) / RFU KRT8 (11758183_x_at) / Fold change /veh KRT8 (11758183_x_at) / RFU CNN1 (11734310_a_at) / Fold change /veh CNN1 (11734310_a_at) / RFU VPS37D (11726825_at) / Fold change /veh VPS37D (11726825_at) / RFU C10orf10 (11716522_x_at) / Fold change /veh C10orf10 (11716522_x_at) / RFU KIR2DL2 /// KIR2DL4 /// KIR2DL5A /// KIR2DL5B /// KIR2DS1 /// KIR2DS2 /// KIR2DS3 /// KIR2DS4 /// KIR3DL3 /// KIR3DL3 /// KIR3DS1 (11738374_at) / Fold change /veh KIR2DL2 /// KIR2DL4 /// KIR2DL5A /// KIR2DL5B /// KIR2DS1 /// KIR2DS2 /// KIR2DS3 /// KIR2DS4 /// KIR3DL3 /// KIR3DL3 /// KIR3DS1 (11738374_at) / RFU C1QL1 (11718748_at) / Fold change /veh C1QL1 (11718748_at) / RFU TMPRSS4 (11747572_a_at) / Fold change /veh TMPRSS4 (11747572_a_at) / RFU HAMP (11756126_x_at) / Fold change /veh HAMP (11756126_x_at) / RFU RNFT2 (11725882_a_at) / Fold change /veh RNFT2 (11725882_a_at) / RFU NR4A2 (11747474_a_at) / Fold change /veh NR4A2 (11747474_a_at) / RFU ABCC12 (11746883_a_at) / Fold change /veh ABCC12 (11746883_a_at) / RFU TMEM136 (11760407_x_at) / Fold change /veh TMEM136 (11760407_x_at) / RFU CLDN22 /// WWC2 (11732394_at) / Fold change /veh CLDN22 /// WWC2 (11732394_at) / RFU HLA-DPB1 (11760878_x_at) / Fold change /veh HLA-DPB1 (11760878_x_at) / RFU SPINT1 (11716480_a_at) / Fold change /veh SPINT1 (11716480_a_at) / RFU GAP43 (11754022_s_at) / Fold change /veh GAP43 (11754022_s_at) / RFU A4GNT (11735810_at) / Fold change /veh A4GNT (11735810_at) / RFU PRB3 (11715151_x_at) / Fold change /veh PRB3 (11715151_x_at) / RFU TUBB4B (11761932_at) / Fold change /veh TUBB4B (11761932_at) / RFU CAPN14 (11732068_a_at) / Fold change /veh CAPN14 (11732068_a_at) / RFU TMCC2 (11721928_a_at) / Fold change /veh TMCC2 (11721928_a_at) / RFU IRGQ (11745062_a_at) / Fold change /veh IRGQ (11745062_a_at) / RFU FAM174B (11720279_a_at) / Fold change /veh FAM174B (11720279_a_at) / RFU TMPRSS4 (11748680_a_at) / Fold change /veh TMPRSS4 (11748680_a_at) / RFU FAM212B (11763350_a_at) / Fold change /veh FAM212B (11763350_a_at) / RFU PLEKHG5 (11743358_a_at) / Fold change /veh PLEKHG5 (11743358_a_at) / RFU ZSCAN30 (11745921_a_at) / Fold change /veh ZSCAN30 (11745921_a_at) / RFU CMKLR1 (11741424_a_at) / Fold change /veh CMKLR1 (11741424_a_at) / RFU LOC101060620 /// MAPK8IP1 (11723275_at) / Fold change /veh LOC101060620 /// MAPK8IP1 (11723275_at) / RFU SPTSSB (11747773_x_at) / Fold change /veh SPTSSB (11747773_x_at) / RFU PRSS12 (11739890_at) / Fold change /veh PRSS12 (11739890_at) / RFU BIN1 (11741810_x_at) / Fold change /veh BIN1 (11741810_x_at) / RFU WNT11 (11732464_a_at) / Fold change /veh WNT11 (11732464_a_at) / RFU C10orf10 (11716521_a_at) / Fold change /veh C10orf10 (11716521_a_at) / RFU C5orf56 (11738089_at) / Fold change /veh C5orf56 (11738089_at) / RFU CYB561 (11721691_x_at) / Fold change /veh CYB561 (11721691_x_at) / RFU ANKRD19P (11752326_a_at) / Fold change /veh ANKRD19P (11752326_a_at) / RFU OR2T12 /// OR2T33 /// OR2T8 (11738714_s_at) / Fold change /veh OR2T12 /// OR2T33 /// OR2T8 (11738714_s_at) / RFU VCAN (11748164_a_at) / Fold change /veh VCAN (11748164_a_at) / RFU JSRP1 (11732532_at) / Fold change /veh JSRP1 (11732532_at) / RFU KRTAP10-11 (11738290_x_at) / Fold change /veh KRTAP10-11 (11738290_x_at) / RFU MYO3A (11730013_a_at) / Fold change /veh MYO3A (11730013_a_at) / RFU EBF3 (11725865_a_at) / Fold change /veh EBF3 (11725865_a_at) / RFU CAMK2N1 (11719241_x_at) / Fold change /veh CAMK2N1 (11719241_x_at) / RFU C5orf56 (11738088_a_at) / Fold change /veh C5orf56 (11738088_a_at) / RFU OLFML3 (11715873_a_at) / Fold change /veh OLFML3 (11715873_a_at) / RFU LOC100653217 /// NTM (11731650_a_at) / Fold change /veh LOC100653217 /// NTM (11731650_a_at) / RFU MAPK11 (11762145_a_at) / Fold change /veh MAPK11 (11762145_a_at) / RFU FIZ1 (11724087_x_at) / Fold change /veh FIZ1 (11724087_x_at) / RFU OASL (11726364_x_at) / Fold change /veh OASL (11726364_x_at) / RFU SOX15 (11748057_x_at) / Fold change /veh SOX15 (11748057_x_at) / RFU CD79A (11719716_a_at) / Fold change /veh CD79A (11719716_a_at) / RFU HIST1H1D (11736915_at) / Fold change /veh HIST1H1D (11736915_at) / RFU CASKIN2 (11723855_a_at) / Fold change /veh CASKIN2 (11723855_a_at) / RFU LOC730098 (11760151_x_at) / Fold change /veh LOC730098 (11760151_x_at) / RFU OR4N2 (11742367_at) / Fold change /veh OR4N2 (11742367_at) / RFU PRRT2 (11749266_a_at) / Fold change /veh PRRT2 (11749266_a_at) / RFU SNX32 (11753110_a_at) / Fold change /veh SNX32 (11753110_a_at) / RFU CDHR5 (11726645_a_at) / Fold change /veh CDHR5 (11726645_a_at) / RFU RCAN1 (11760418_a_at) / Fold change /veh RCAN1 (11760418_a_at) / RFU FAM167A (11723789_a_at) / Fold change /veh FAM167A (11723789_a_at) / RFU FAM26E (11764081_at) / Fold change /veh FAM26E (11764081_at) / RFU ISYNA1 (11749810_s_at) / Fold change /veh ISYNA1 (11749810_s_at) / RFU ACY1 (11761880_at) / Fold change /veh ACY1 (11761880_at) / RFU 11764098_at / Fold change /veh 11764098_at / RFU SAMD14 (11745864_x_at) / Fold change /veh SAMD14 (11745864_x_at) / RFU NPB (11741838_a_at) / Fold change /veh NPB (11741838_a_at) / RFU TMPRSS6 (11731388_a_at) / Fold change /veh TMPRSS6 (11731388_a_at) / RFU KRTAP10-2 (11738614_at) / Fold change /veh KRTAP10-2 (11738614_at) / RFU ARHGAP8 /// PRR5-ARHGAP8 (11727945_x_at) / Fold change /veh ARHGAP8 /// PRR5-ARHGAP8 (11727945_x_at) / RFU KRTAP5-7 /// NADSYN1 (11734609_at) / Fold change /veh KRTAP5-7 /// NADSYN1 (11734609_at) / RFU RASL12 (11751679_a_at) / Fold change /veh RASL12 (11751679_a_at) / RFU CDKN2B (11736163_a_at) / Fold change /veh CDKN2B (11736163_a_at) / RFU PRF1 (11729649_at) / Fold change /veh PRF1 (11729649_at) / RFU, ZNF638 /// ZNF638-IT1 / Fold change vs veh, ZNF638 /// ZNF638-IT1 / RFU, PANK3 / Fold change vs veh, PANK3 / RFU, SH3YL1 / Fold change vs veh, SH3YL1 / RFU, ZEB2 / Fold change vs veh, ZEB2 / RFU, NRIP1 / Fold change vs veh, NRIP1 / RFU, PTTG1IP / Fold change vs veh, PTTG1IP / RFU, CAPN2 / Fold change vs veh, CAPN2 / RFU, MED14 / Fold change vs veh, MED14 / RFU, SNORA58 / Fold change vs veh, SNORA58 / RFU, C1orf63 / Fold change vs veh, C1orf63 / RFU, LRRFIP1 / Fold change vs veh, LRRFIP1 / RFU, NDUFAF7 / Fold change vs veh, NDUFAF7 / RFU, SLC12A2 / Fold change vs veh, SLC12A2 / RFU, IBTK / Fold change vs veh, IBTK / RFU, ESF1 / Fold change vs veh, ESF1 / Fold change vs veh, TMEM50B / RFU, TAOK1 / Fold change vs veh, TAOK1 / RFU, ACBD3 / Fold change vs veh, ACBD3 / RFU, TMA16 / Fold change vs veh, TMA16 / RFU, RWDD3 / Fold change vs veh, RWDD3 / RFU, BCAT1 / Fold change vs veh, BCAT1 / RFU, EDEM3 / Fold change vs veh, EDEM3 / RFU, TMEM33 / Fold change vs veh, TMEM33 / RFU, WDR75 / Fold change vs veh, WDR75 / RFU, AHCTF1 / Fold change vs veh, AHCTF1 / RFU, TFRC / Fold change vs veh, TFRC / RFU, ZDHHC17 / Fold change vs veh, ZDHHC17 / RFU, NOM1 / Fold change vs veh, NOM1 / RFU, ARL8B / Fold change vs veh, ARL8B / RFU, ZBTB11 / Fold change vs veh, ZBTB11 / RFU, TAMM41 / Fold change vs veh, TAMM41 / RFU, KIAA1704 /// LOC100996395 / Fold change vs veh, KIAA1704 /// LOC100996395 / RFU, ING1 / Fold change vs veh, ING1 / RFU, TRMT61B / Fold change vs veh, TRMT61B / RFU, FUBP3 / Fold change vs veh, FUBP3 / RFU, TP53 / Fold change vs veh, TP53 / RFU, TNKS2 / Fold change vs veh, TNKS2 / RFU, ZFP14 / Fold change vs veh, ZFP14 / RFU, ACTR2 / Fold change vs veh, ACTR2 / RFU, PPP3R1 / Fold change vs veh, PPP3R1 / RFU, PIK3R1 / Fold change vs veh, PIK3R1 / RFU, HNRNPA1 / Fold change vs veh, HNRNPA1 / RFU, RNF170 / Fold change vs veh, RNF170 / RFU, ZNF28 / Fold change vs veh, ZNF28 / RFU, RNGTT / Fold change vs veh, RNGTT / RFU, OGT / Fold change vs veh, OGT / RFU, BRD1 / Fold change vs veh, BRD1 / RFU, MARS / Fold change vs veh, MARS / RFU, ZNF655 / Fold change vs veh, ZNF655 / RFU, FAHD1 / Fold change vs veh, FAHD1 / RFU, BDP1 / Fold change vs veh, BDP1 / RFU, LRRCC1 / Fold change vs veh, LRRCC1 / RFU, ARID1A / Fold change vs veh, ARID1A / RFU, ZNF146 / Fold change vs veh, ZNF146 / RFU, ZNF330 / Fold change vs veh, ZNF330 / RFU, GPN3 / Fold change vs veh, GPN3 / RFU, C9orf123 / Fold change vs veh, C9orf123 / RFU, N4BP2L2 / Fold change vs veh, N4BP2L2 / RFU, ARFIP1 / Fold change vs veh, ARFIP1 / RFU, FAM179B / Fold change vs veh, FAM179B / RFU, BCL10 / Fold change vs veh, BCL10 / RFU, UHRF1BP1L / Fold change vs veh, UHRF1BP1L / RFU, BET1 / Fold change vs veh, BET1 / RFU, CNOT2 / Fold change vs veh, CNOT2 / RFU, ZNF268 / Fold change vs veh, ZNF268 / Fold change vs veh, ZNF507 / RFU, DGCR2 / Fold change vs veh, DGCR2 / RFU, WDSUB1 / Fold change vs veh, WDSUB1 / Fold change vs veh, HSP90B1 /// MIR3652 / RFU, ADSS / Fold change vs veh, ADSS / RFU, GK / Fold change vs veh, GK / RFU, ZNF148 / Fold change vs veh, ZNF148 / RFU, TAF9 / Fold change vs veh, TAF9 / RFU, SLC1A5 / Fold change vs veh, SLC1A5 / RFU, SLMO2 / Fold change vs veh, SLMO2 / RFU, ABCC4 / Fold change vs veh, ABCC4 / RFU, LOC101060439 /// RAP1B / Fold change vs veh, LOC101060439 /// RAP1B / RFU, RFX7 / Fold change vs veh, RFX7 / RFU, GTPBP10 / Fold change vs veh, GTPBP10 / RFU, CNEP1R1 / Fold change vs veh, CNEP1R1 / RFU, BIVM-ERCC5 /// ERCC5 / Fold change vs veh, BIVM-ERCC5 /// ERCC5 / RFU, ILF3 / Fold change vs veh, ILF3 / RFU 11762660_at / Fold change /veh 11762660_at / RFU VCAN (11757783_s_at) / Fold change /veh VCAN (11757783_s_at) / RFU DDX43 (11728927_at) / Fold change /veh DDX43 (11728927_at) / RFU KRT8 (11758188_x_at) / Fold change /veh KRT8 (11758188_x_at) / RFU NKD1 (11759106_at) / Fold change /veh NKD1 (11759106_at) / RFU SRD5A1 (11742802_a_at) / Fold change /veh SRD5A1 (11742802_a_at) / RFU TPSAB1 /// TPSB2 (11721975_s_at) / Fold change /veh TPSAB1 /// TPSB2 (11721975_s_at) / RFU GSTM3 (11746129_a_at) / Fold change /veh GSTM3 (11746129_a_at) / RFU IL23R (11737362_x_at) / Fold change /veh IL23R (11737362_x_at) / RFU TMEM51 (11727254_a_at) / Fold change /veh TMEM51 (11727254_a_at) / RFU PIWIL2 (11732686_x_at) / Fold change /veh PIWIL2 (11732686_x_at) / RFU ORM1 (11744905_x_at) / Fold change /veh ORM1 (11744905_x_at) / RFU CCDC152 (11743942_at) / Fold change /veh CCDC152 (11743942_at) / RFU ECM1 (11717891_a_at) / Fold change /veh ECM1 (11717891_a_at) / RFU IL23R (11748794_a_at) / Fold change /veh IL23R (11748794_a_at) / RFU TNFAIP8L3 (11732012_x_at) / Fold change /veh TNFAIP8L3 (11732012_x_at) / RFU MBOAT4 (11741988_at) / Fold change /veh MBOAT4 (11741988_at) / RFU 11764193_at / Fold change /veh 11764193_at / RFU TMEM53 (11763286_at) / Fold change /veh TMEM53 (11763286_at) / RFU MAGEB2 (11727129_at) / Fold change /veh MAGEB2 (11727129_at) / RFU TMEM200A (11744735_a_at) / Fold change /veh TMEM200A (11744735_a_at) / RFU CCDC152 (11751479_a_at) / Fold change /veh CCDC152 (11751479_a_at) / RFU FAM211A (11726209_a_at) / Fold change /veh FAM211A (11726209_a_at) / RFU RGS16 (11746705_a_at) / Fold change /veh RGS16 (11746705_a_at) / RFU VCAN (11755009_s_at) / Fold change /veh VCAN (11755009_s_at) / RFU RHOB (11743442_s_at) / Fold change /veh RHOB (11743442_s_at) / RFU RGS16 (11720943_a_at) / Fold change /veh RGS16 (11720943_a_at) / RFU RGS16 (11720944_at) / Fold change /veh RGS16 (11720944_at) / RFU, VPS4B / Fold change vs veh, VPS4B / RFU, CREB1 / Fold change vs veh, CREB1 / RFU, DNAJC13 / Fold change vs veh, DNAJC13 / RFU, GNAQ / Fold change vs veh, GNAQ / RFU, CDK5R1 / Fold change vs veh, CDK5R1 / RFU, ZRANB3 / Fold change vs veh, ZRANB3 / RFU, CUL4A / Fold change vs veh, CUL4A / RFU, CCNY / Fold change vs veh, CCNY / RFU, UFL1 / Fold change vs veh, UFL1 / RFU, COG3 / Fold change vs veh, COG3 / RFU, DIAPH2 / Fold change vs veh, DIAPH2 / RFU, SKA2 / Fold change vs veh, SKA2 / RFU, AFF3 / Fold change vs veh, AFF3 / RFU, LMF1 / Fold change vs veh, LMF1 / RFU, IPO11 / Fold change vs veh, IPO11 / RFU, DFFB / Fold change vs veh, DFFB / RFU, FOXP1 / Fold change vs veh, FOXP1 / RFU, CARD8 / Fold change vs veh, CARD8 / RFU, STRN3 / Fold change vs veh, STRN3 / RFU, ADK / Fold change vs veh, ADK / RFU, RASSF2 / Fold change vs veh, RASSF2 / RFU, WIPF1 / Fold change vs veh, WIPF1 / RFU, LARP1B / Fold change vs veh, LARP1B / RFU, RASA1 / Fold change vs veh, RASA1 / RFU, RB1 / Fold change vs veh, RB1 / RFU, PPFIA1 / Fold change vs veh, PPFIA1 / RFU, MAT2A / Fold change vs veh, MAT2A / RFU, CCT5 / Fold change vs veh, CCT5 / RFU, WDR92 / Fold change vs veh, WDR92 / RFU, CUX1 / Fold change vs veh, CUX1 / RFU, TTC7A / Fold change vs veh, TTC7A / RFU, TMEM135 / Fold change vs veh, TMEM135 / RFU, DEPTOR / Fold change vs veh, DEPTOR / RFU, CPM / Fold change vs veh, CPM / RFU, DNAJB6 / Fold change vs veh, DNAJB6 / RFU, CACNA2D3 / Fold change vs veh, CACNA2D3 / RFU, DTX4 / Fold change vs veh, DTX4 / RFU, TFCP2 / Fold change vs veh, TFCP2 / RFU, GMCL1 /// GMCL1P1 / Fold change vs veh, GMCL1 /// GMCL1P1 / RFU, AEBP2 / Fold change vs veh, AEBP2 / RFU, SNHG1 /// SNORD22 /// SNORD25 /// SNORD26 /// SNORD27 /// SNORD28 /// SNORD29 /// SNORD31 / Fold change vs veh, SNHG1 /// SNORD22 /// SNORD25 /// SNORD26 /// SNORD27 /// SNORD28 /// SNORD29 /// SNORD31 / Fold change (Aza/veh), C12orf56 (ProbeSet 11735607_a_at) / Fold change (ACY-1035/veh), C12orf56 (ProbeSet 11735607_a_at) / Fold change (Aza/veh), FGFR1OP (ProbeSet 11751329_s_at) / Fold change (ACY-1035/veh), FGFR1OP (ProbeSet 11751329_s_at) / Fold change (Aza/veh), VPS36 (ProbeSet 11739960_a_at) / Fold change (ACY-1035/veh), VPS36 (ProbeSet 11739960_a_at) / RFU SYPL1 (11715823_x_at) / Fold change /veh SYPL1 (11715823_x_at) / RFU IGFBP7 (11715501_s_at) / Fold change /veh IGFBP7 (11715501_s_at) / RFU REEP3 (11722064_at) / Fold change /veh REEP3 (11722064_at) / RFU IGLL1 (11728026_x_at) / Fold change /veh IGLL1 (11728026_x_at): dose or concentration left out as unconfirmed
Details: MV-4-11 cells, 48 hours

Q: How did the “Fold change /veh NKD1 (11759106_at)” value turn out when `Nc1ncn([C@@H]2O[C@H](CO)[C@@H](O)[C@H]2O)c(=O)n1` [azacitidine] was run?
A: 1.33
